Consider 19 compounds from patent US4880804A (E. I. Du Pont De Nemours and Company, priority 1988, dated 1989).

One data set has as its target AII receptor. Nature of the data set: Angiotensin II receptor binding, displacement of 3H-AII. As to conditions: read-out: Angiotensin II Receptor Binding IC50; rat adrenal cortical microsomes, 2 nM 3H-AII, 1 hour, room temperature. Here is the method:
The reaction mixture contained rat adrenal cortical microsomes (source of AII receptor) in Tris buffer and 2 nM of ^3 H-AII with or without potential AII antagonist. This mixture was incubated for 1 hour at room temperature and the reaction was subsequently terminated by rapid filtration and rinsing through glass microfibre filter. Receptor-bound ^3 H-AII trapped in filter was quantitated by scintillation counting.

For a further data set, the system named is renal hypertensive rats. Nature of the data set: Antihypertensive effects in renal hypertensive rats. It is filed as in vivo, rat. As to conditions: class symbol. Here is the method:
This procedure increases blood pressure by increasing renin production with consequent elevation of AII levels. Compounds are administered orally and/or intravenously via a cannula in the jugular vein. Arterial blood pressure is continuously measured directly through a cartoid artery cannula and recorded using a pressure transducer and a polygraph. Blood pressure levels after treatment are compared to pretreatment levels to determine the antihypertensive effects of the compounds (See Table 4).

In data set [1] the test system is AII. The settings on record: cited from earlier work.
In data set [2] the test system is AII. The settings on record: cited from earlier work. This is another data set of the same source.

Regarding `CCOC(=O)C(Cc1nc2ccccc2n1Cc1ccc(NC(=O)c2ccccc2C(=O)O)cc1)C(=O)OCC` [Example 1, 3-[1-(4-(2-Carboxybenzamido)benzyl)benzimidazol-2-yl]-2-(carboethoxy)propanoic acid, ethyl ester], the IC50 at AII receptor stood at 8.3 µM.
Turning to `CCOC(=O)CCc1nc2ccccc2n1Cc1ccc(NC(=O)c2ccccc2C(=O)O)cc1` [Example 2, 3-[1-(4-(2-Carboxybenzamido)benzyl)benzimidazole-2-yl]-2-propanoic acid, ethyl ester], at AII receptor, the IC50 amounted to 2.1 µM.
On to `CCCC=Cc1nc2ccccc2n1Cc1ccc(NC(=O)c2ccccc2C(=O)O)cc1` [Example 3, 1-[4-(2-Carboxybenzamido)benzyl]-2-(1-pentenyl)benzimidazole], for which, at AII receptor, the IC50 is 4.4 µM.
Regarding `CCOC(=O)C=Cc1nc2ccccc2n1Cc1ccc(NC(=O)c2ccccc2C(=O)O)cc1` [Example 4, 3-[1-(4-(2-Carboxybenzamido)benzyl)benzimidazol-2-yl]propenoic acid, ethyl ester], the IC50 at AII receptor was 15 µM.
For `CCOC(=O)C=Cc1nc2ccccc2n1Cc1ccc(NC(=O)c2ccccc2NS(=O)(=O)C(F)(F)F)cc1` [Example 5], on AII receptor, the IC50 amounted to 29 µM.
Same read-out and setting: the same measure for `CCOC(=O)CCc1nc2ccccc2n1Cc1ccc(NC(=O)c2ccccc2NS(=O)(=O)C(F)(F)F)cc1` [Example 6]: 2.8 µM.
For the compound `CCCCc1nc2ccc(CO)cc2n1Cc1ccc(-c2ccccc2C(=O)O)cc1` [Example 27, 2-Butyl-1-[(2'-Carboxybiphenyl-4-yl)methyl]-6-hydroxymethylbenzimidazole], the IC50 at AII receptor amounted to 0.22 µM. Besides, in the data set with renal hypertensive rats, the “Antihypertensive Effects in Renal Hypertensive Rats, Intravenous Activity” value (“Antihypertensive Effects … Intravenous Activity” below) is “+ (Significant decrease in blood pressure at 10 mg/kg or less.)” and the “Antihypertensive Effects in Renal Hypertensive Rats, Oral Activity” value (shortened to “Antihypertensive Effects … Oral Activity”) is recorded as “+ (Significant decrease in blood pressure at 100 mg/kg or less.)”.
Regarding `CCCCc1nc2cc(CO)ccc2n1Cc1ccc(-c2ccccc2C(=O)O)cc1` [Example 28, 2-Butyl-1-[(2'-carboxybiphenyl-4-yl)methyl]-5-hydroxymethylbenzimidazole], the IC50 at AII receptor was found to be 0.37 µM. In the data set on renal hypertensive rats, the “Antihypertensive Effects … Intravenous Activity” value is “+ (Significant decrease in blood pressure at 10 mg/kg or less.)”.
Take `CCCCc1nc2ccc(OC)cc2n1Cc1ccc(-c2ccccc2C(=O)O)cc1` [Example 29, 1-[(2'-Carboxybiphenyl-4-yl)methyl]-2-butyl-6-methoxybenzimidazole]: the IC50 at AII receptor is 0.92 µM. For the same compound, the “Antihypertensive Effects … Intravenous Activity” value in the data set on renal hypertensive rats was “+ (Significant decrease in blood pressure at 10 mg/kg or less.)”.
For the compound `CCCCc1nc2cc(OC)ccc2n1Cc1ccc(-c2ccccc2C(=O)O)cc1` [Example 30], at AII receptor, the IC50 amounted to 1 µM. The “Antihypertensive Effects … Intravenous Activity” value in the data set on renal hypertensive rats is on record as “+ (Significant decrease in blood pressure at 10 mg/kg or less.)”.
Take `CCCCc1nc2ccc(C=O)cc2n1Cc1ccc(-c2ccccc2C(=O)O)cc1` [Example 31]: the IC50 at AII receptor amounted to 1.4 µM. Also, the “Antihypertensive Effects … Intravenous Activity” value in the data set on renal hypertensive rats is reported as “+ (Significant decrease in blood pressure at 10 mg/kg or less.)”.
Regarding `CCC=Cc1nc2ccc(CO)cc2n1Cc1ccc(-c2ccccc2C(=O)O)cc1` [Example 32, 2-(1-Butenyl)-6-hydroxymethyl-1-[(2'-carboxybiphenyl-4-yl)methyl]benzimidazole], the IC50 at AII receptor was 0.5 µM. In addition, in the data set on renal hypertensive rats, the “Antihypertensive Effects … Intravenous Activity” value was “+ (Significant decrease in blood pressure at 10 mg/kg or less.)” and the “Antihypertensive Effects … Oral Activity” value is given as “+ (Significant decrease in blood pressure at 100 mg/kg or less.)”.
`CCCCc1nc2ccc(Cl)cc2n1Cc1ccc(-c2ccccc2C(=O)O)cc1` [Example 33, 2-Butyl-1-[(2'-carboxybiphenyl-4-yl)methyl]-6-chlorobenzimidazole]: the IC50 on AII receptor stood at 5 µM. Further, in the data set with renal hypertensive rats, the “Antihypertensive Effects … Intravenous Activity” value is on record as “+ (Significant decrease in blood pressure at 10 mg/kg or less.)” and the “Antihypertensive Effects … Oral Activity” value was “+ (Significant decrease in blood pressure at 100 mg/kg or less.)”.
`COCc1nc2ccc(CO)cc2n1Cc1ccc(-c2ccccc2C(=O)O)cc1` [Example 34]: on AII receptor, the IC50 amounted to 6.3 µM. For the same compound, in the data set with renal hypertensive rats, the “Antihypertensive Effects … Intravenous Activity” value was “+ (Significant decrease in blood pressure at 10 mg/kg or less.)”.
For the compound `COCc1nc2cc(CO)ccc2n1Cc1ccc(-c2ccccc2C(=O)O)cc1` [Example 35], at AII receptor, the IC50 came out at 21 µM. Further, the “Antihypertensive Effects … Intravenous Activity” value in the data set with renal hypertensive rats was “+ (Significant decrease in blood pressure at 10 mg/kg or less.)”.
For the compound `CCCCc1nc2cc(C(=O)O)ccc2n1Cc1ccc(-c2ccccc2C(=O)O)cc1` [Example 36], the IC50 on AII receptor is 2.5 µM. Moreover, the “Antihypertensive Effects … Intravenous Activity” value in the data set with renal hypertensive rats was “+ (Significant decrease in blood pressure at 10 mg/kg or less.)”.
On the same counts, the results for `CCCCc1nc2ccc(C(=O)O)cc2n1Cc1ccc(-c2ccccc2C(=O)O)cc1` [Example 37] are 5.7 µM and “+ (Significant decrease in blood pressure at 10 mg/kg or less.)”.
`CCCCc1nc2cc(Cl)ccc2n1Cc1ccc(-c2ccccc2C(=O)O)cc1` [Example 38]: the IC50 at AII receptor is 11 µM. In addition, the “Antihypertensive Effects … Intravenous Activity” value in the data set with renal hypertensive rats was “+ (Significant decrease in blood pressure at 10 mg/kg or less.)”.
In the case of `CNCC(=O)N[C@@H](CCCN=C(N)N)C(=O)N[C@H](C(=O)N[C@@H](Cc1ccc(O)cc1)C(=O)N[C@H](C(=O)N[C@@H](Cc1cnc[nH]1)C(=O)N1CCC[C@H]1C(=O)N[C@@H](C)C(=O)O)C(C)C)C(C)C` [Saralasin], in the data set on AII [1] (in words), the “Antagonism of the actions of AII” value was “one of the most potent competitive antagonists of the actions of AII”. In the data set on AII [1] (pithed rats), the “Block of the effects of AII on blood pressure” value was “blocks the effects of AII on the blood pressure of pithed rats”. Besides, the “Lowering of arterial pressure” value in the data set with AII [2] (elevated pressure dependent on circulating AII) is “lower arterial pressure in mammals and man when the (elevated) pressure is dependent on circulating AII”. Further, the Oral effectiveness entry in the data set on AII [2] (oral) is recorded as “oral doses being ineffective”. Further, the “Duration of pharmacological effects” value in the data set with AII [2] (parenteral administration) is recorded as “relatively short-lasting”. The “Pressor effects (agonistic character)” value in the data set with AII [2] (pressure not sustained by AII) is listed as “generally elicits pressor effects when the pressure is not sustained by AII”.
